Key:
HIV-1-Protease = molecular target: T1, HIV-1-Protease (Human immunodeficiency virus type 1 group M subtype B, UniProt P04585); assay: HIV-specific protease enzyme test (cleavage of synthetic peptide by purified HIV protease, RP-HPLC analysis); type: biochemical; conditions: synthetic peptide substrate imitating Gag precursor cleavage site; for IC50: read-out: HIV-1-Protease-Inhibition IC50
T1 construct: Gereinigte HIV-Protease wurde mit synthetischem Peptid
Text: Es wurde überraschend gefunden, daß die Verbindungen der allgemeinen Formel (I) eine außerordentlich starke Wirkung gegen Retroviren besitzen. Dies wird mit einem HIV-spezifischen Protease-Enzymtest belegt.
Die Ergebnisse der unten aufgeführten Beispiele wurden nach dem in den folgenden Literaturangaben [vgl. Hansen, J., Billich, S., Schulze, T., Sukrow, S. and Mölling, K. (1988), EMBO Journal, Vol, 7, No. 6, pp. 1785 - 1791] beschriebenen HIV-Testsystem ermittelt: Gereinigte HIV-Protease wurde mit synthetischem Peptid, das eine Schnittstelle im Gag-Precursor-Protein imitiert und eine in vivo-Spaltstelle der HIV-Protease darstellt, inkubiert. Die entstandenen Spaltprodukte des synthetischen Peptids wurden über Reverse Phase High Performance Liquid Chromatography (RP-HPLC) analysiert. Die angegebenen IC50Werte beziehen sich auf die Substanzkonzentration, die unter den oben aufgeführten Testbedingungen eine 50%ige Hemmung der Protease-Aktivität bewirkt.

HIV = HIV infection in cell culture (PBL), inhibition of virus-induced syncytia formation; type: cell-based; conditions: Human immunodeficiency virus 1, Lymphocyte, 72 h; HIV-infected normal human blood lymphocytes (PBL's); 50% suppression of virus-induced syncytia, read microscopically day 3 to 6 after infection
Description: Außerdem zeigten die erfindungsgemäßen Verbindungen Wirkung in Lentivirus infizierten Zellkulturen. Dies konnte am Beispiel des HIV-Virus gezeigt werden.
HIV-Infektion in Zellkultur
Der HIV-Test wurde mit geringen Modifikationen nach der Methode von Pauwels et al. [vgl. Journal of Virological Methods 20, (1988), 309-321] durchgeführt.
Normale menschliche Blutlymphozyten (PBL's) wurden über Ficoll-Hypaque angereichert und im RPMI 1640, 20% fötales Kälberserum mit Phythaemagglutinin (90 µg/ml) und Interleukin-2 (40 U/ml) stimuliert. Zur Infektion mit dem infektiösen HIV wurden PBL's pelletiert und das Zellpellet wurde anschließend in 1 ml HIV-Virusadsorptionslösung suspendiert und 1 Stunde bei 37°C inkubiert.
Die Virusadsorptionslösung wurde zentrifugiert und das infizierte Zellpellet in Wachstumsmedium aufgenommen, so daß 1 x 10^5 Zellen pro ml eingestellt waren. Die derart infizierten Zellen wurden zu 1 x 10^4 Zellen/Napf in die Näpfe von 96er Mikrotiterplatten pipettiert.
Die erste vertikale Reihe der Mikrotiterplatte enthielt nur Wachstumsmedium und Zellen, die nicht infiziert, aber ansonsten genauso wie oben beschrieben, behandelt worden waren (Zellkontrolle). Die zweite vertikale Reihe der Mikrotiterplatte erhielt nur HIV-infizierte Zellen (Viruskontrolle) in Wachstumsmedium. Die übrigen Näpfe enthielten die erfindungsgemäßen Verbindungen in unterschiedlichen Konzentrationen, ausgehend von den Näpfen der 3. vertikalen Reihe der Mikrotiterplatte, von der die Prüfsubstanzen in 2er Schritten 2^10fach verdünnt wurden.
Die Testansätze wurden so lange bei 37°C inkubiert, bis in der unbehandelten Viruskontrolle die für das HIV typische Syncytienbildung auftrat (zwischen Tag 3 und 6 nach Infektion), die dann mikroskopisch ausgewertet wurde. In der unbehandelten Viruskontrolle resultierten unter diesen Testbedingungen etwa 20 Syncytien, währen die unbehandelte Zellkontrolle keine Syncytien aufwies. […]

Structure (SMILES)	HIV-1-Protease-Inhibition IC95 (HIV-1-Protease)	IC50 (HIV-1-Protease) [nM]	IC50 (HIV) [nM]
CC(=O)O[C@H](CN1[C@H](C(F)(F)F)C[C@@H]2CCC[C@@H]21)[C@H](Cc1ccccc1)NC(=O)[C@H](CC(N)=O)NC(=O)c1cnc2cc(C)c(C)cc2n1 [Beispiel 3]	2,5 x 10^-8 Mol/l	1.5	120
CCOC(=O)CCC(=O)O[C@H](CN1[C@H](C(F)(F)F)C[C@@H]2CCC[C@@H]21)[C@H](Cc1ccccc1)NC(=O)[C@H](CC(N)=O)NC(=O)c1ccc2ccccc2n1 [Beispiel 1, (2R,3S)-3-(Chinolin-2-yl-L-asparaginyl)-amino-1-[(S,S,S)-3-trifluormethyl-2-azabicylco[3.3.0]octan-2-yl}-2-(3-ethoxycarbonyl)propionyl-4-phenylbutan]		320000	108
CC(=O)O[C@H](CN1[C@H](C(F)(F)F)C[C@@H]2CCC[C@@H]21)[C@H](Cc1ccccc1)NC(=O)[C@H](CC(N)=O)NC(=O)c1ccc2ccccc2n1 [Beispiel 2]	3,3 x 10^-5 Mol/l	1100	612

From patent EP0720987A1, “Acylated pseudopeptides containing trifluoromethyl substituted 2-azabicyclooctane” (BAYER AG, priority 1995, dated 1996)
